Data on 17 compounds can be found in patent publication US6114334A, “Piperazine derivatives as therapeutic agents” (Knoll Aktiengesellschaft, priority 1995, dated 2000).

Where a name gives a salt, the structure may show the parent alone. Read-outs that look alike come from different tables or passages of the source. Bounds are passed on as bounds.

The Ki is a measure of affinity in units of concentration, obtained from inhibition or displacement.

The target of one assay is T1, 5-HT1A receptors (Rattus norvegicus, UniProt P19327).
T1 sequence (P19327 1-422): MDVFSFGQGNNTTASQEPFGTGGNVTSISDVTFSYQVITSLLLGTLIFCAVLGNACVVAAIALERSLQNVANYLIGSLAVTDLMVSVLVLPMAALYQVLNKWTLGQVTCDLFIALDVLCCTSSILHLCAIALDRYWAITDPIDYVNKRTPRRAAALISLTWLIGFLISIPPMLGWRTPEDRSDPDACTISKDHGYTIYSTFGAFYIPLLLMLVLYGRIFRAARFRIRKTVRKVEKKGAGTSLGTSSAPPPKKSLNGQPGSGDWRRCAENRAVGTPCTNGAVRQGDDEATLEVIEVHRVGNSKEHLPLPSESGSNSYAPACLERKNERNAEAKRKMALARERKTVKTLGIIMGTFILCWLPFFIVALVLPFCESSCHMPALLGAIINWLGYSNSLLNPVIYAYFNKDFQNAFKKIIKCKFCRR
Kind of assay: inhibition of [3H]8-OH-DPAT binding to 5-HT1A receptors in vitro. On the set-up: species or system rat (male Sprague-Dawley, hippocampal tissue). The settings on record: for Ki: [3H]8-OH-DPAT 2 nM, 25° C., 30 min; for inhibition at 1 µM: read-out: % displacement at 10^-6 M, 5-HT1A.

A further assay addresses T2, α2D-adrenoceptors (Rattus norvegicus, UniProt P22909).
T2 sequence (P22909 1-465): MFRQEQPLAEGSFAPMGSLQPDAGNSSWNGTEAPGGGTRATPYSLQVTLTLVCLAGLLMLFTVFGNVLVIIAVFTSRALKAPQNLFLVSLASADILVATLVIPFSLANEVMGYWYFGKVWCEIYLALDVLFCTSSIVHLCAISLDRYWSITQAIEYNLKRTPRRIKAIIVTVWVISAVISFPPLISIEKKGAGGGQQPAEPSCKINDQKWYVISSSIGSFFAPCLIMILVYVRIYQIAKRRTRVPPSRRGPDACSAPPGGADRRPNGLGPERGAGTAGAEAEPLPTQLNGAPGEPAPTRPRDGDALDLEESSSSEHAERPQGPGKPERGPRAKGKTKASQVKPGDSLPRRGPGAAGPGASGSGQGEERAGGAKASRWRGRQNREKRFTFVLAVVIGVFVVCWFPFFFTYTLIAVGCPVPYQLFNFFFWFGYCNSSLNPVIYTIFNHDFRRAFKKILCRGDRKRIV
Description: inhibition of tritiated idazoxan binding to α2D-adrenoceptors in vitro. On the set-up: species or system rat (male Charles River CD, frontal cortical tissue). As to conditions: rat frontal cortex; for Ki: [3H]idazoxan 1 nM, 0° C., 75 min; for inhibition at 1 µM: 10^-6 M, [3H]idazoxan, read-out: % displacement at 10^-6 M, α2D.

The next assay has as its target α1-adrenoceptors. Kind of assay: inhibition of 7-methoxy-[3H]prazosin binding to α1-adrenoceptors in vitro. Further details: species or system rat (male Charles River CD, whole cortical tissue). As to conditions: rat whole cortex, 30 min; for Ki: 7-methoxy-[3H]prazosin 0.1 nM, 30° C.; for % displacement at 10^-6 M, α1: 7-methoxy-[3H]prazosin, 1 µM. As for the experimental part:
Whole cortical tissue from the brains of male Charles River CD rats weighing between 150-250 g were homogenised in ice-cold 50 mM Tris-HCl, pH 7.6 (at 25° C.; 1:40 w/v) and centrifuged at 1000 g at 4° C. for 10 minutes. The supernatant was centrifuged at 30,000 g at 4° C. for 10 minutes. The pellet was rehomogenised in 50 mM Tris-HCl, pH 7.6 (1:40 w/v) and centrifuged at 30,000 g at 4° C. for 10 minutes. The final pellet was resuspended in 50 mM Tris-HCl, pH 7.6 (equivalent to 12.5 mg wet weight of tissue/ml) and used immediately in the binding assay. Aliquots (400 μl; equivalent to 5 mg wet weight of tissue/tube) of this suspension were added to tubes containing the ligand (50 μl; 0.1 nM) and distilled water (50 μl; total binding) or phentolamine (50 μl; 5 μM; non-specific binding) or test compound (50 μl; at a single concentration of 10^-6 M or at 10 concentrations ranging from 10^-11 -10^-3 M). The ligand was 7-methoxy-[^3 H]prazosin and the mixture was incubated at 30° C. for 30 minutes before the incubation was terminated by rapid filtration. The filters were washed with ice-cold Tris-HCl buffer and dried. The filters were punched out into vials, scintillation fluid added and radioactivity determined by liquid scintillation counting. The percentage displacement of specific binding of the tritiated ligand was calculated for the single concentration (10^-6 M) of test compound. […] The concentration which gave 50% inhibition of specific binding (IC50) was obtained from the curve. The inhibition coefficient Ki was then calculated using the formula [formula] in which [ligand] is the concentration of the tritiated ligand used and KD is the equilibrium dissociation constant for the ligand.

For another assay, the target named is D2 dopamine receptors (Rattus norvegicus, UniProt P61169). Kind of assay: inhibition of tritiated (S)-sulpiride binding to D2 dopamine receptors in vitro. Further details: species or system rat (male Charles River CD, striatal tissue). As to conditions: rat striatum; for Ki: tritiated (S)-sulpiride 1 nM, 4° C., 40 min.
Chain of D2 dopamine receptors (P61169 whole entry): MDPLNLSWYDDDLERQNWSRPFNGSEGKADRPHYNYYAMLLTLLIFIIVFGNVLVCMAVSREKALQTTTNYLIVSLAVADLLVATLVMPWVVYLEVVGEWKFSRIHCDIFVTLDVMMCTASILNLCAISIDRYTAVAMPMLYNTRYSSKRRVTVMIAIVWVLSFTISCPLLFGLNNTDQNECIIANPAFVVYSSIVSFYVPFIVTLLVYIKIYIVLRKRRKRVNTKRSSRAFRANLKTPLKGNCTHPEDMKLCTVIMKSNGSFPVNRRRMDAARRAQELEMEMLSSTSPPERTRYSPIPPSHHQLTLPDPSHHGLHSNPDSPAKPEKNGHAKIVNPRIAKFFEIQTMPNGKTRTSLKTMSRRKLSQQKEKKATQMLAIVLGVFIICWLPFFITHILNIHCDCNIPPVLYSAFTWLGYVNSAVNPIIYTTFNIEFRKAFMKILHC
Setting [1] is: 10^-6 M, rat hippocampus, [3H]8-OH-DPAT.

Turning to `COc1ccccc1N1CCN(Cn2nc(-c3ccc(Cl)cc3)n(-c3cccnc3)c2=S)CC1` [Example 48, 5-(4-Chlorophenyl)-2-[4-(2-methoxyphenyl)piperazin-1-ylmethyl]-4-(3-pyridyl)-1,2,4-triazole-3(2H,4H)-thione], the Ki was found to be 108 nM at 5-HT1A receptors (rat hippocampus), 71 nM on α2D-adrenoceptors, 430 nM at α1-adrenoceptors and 200 nM at D2 dopamine receptors.
For the compound `Nc1c(CN2CCN(c3cccc(C(F)(F)F)c3)CC2)c(C2CC2)nn1-c1ccccc1` [Example 15, 5-Amino-3-cyclopropyl-1-phenyl-4-{4-[3-(trifluoromethyl)phenyl]piperazin-1-ylmethyl}pyrazole], the inhibition at 1 µM on 5-HT1A receptors (setting [1]) is 67%. For the same compound, the Ki at α2D-adrenoceptors was more than 500 nM; at α1-adrenoceptors, more than 500 nM; at D2 dopamine receptors, 337 nM.
With `C=CCn1c(-c2cccnc2)nn(CCCCN2CCN(c3cccc(C)c3C)CC2)c1=O` [Example 64, 4-Allyl-2-{4-[4-(2,3-dimethylphenyl)piperazin-1-yl]butyl}-5-(3-pyridyl)-1,2,4-triazol-3(2H,4H)-one 1.5 maleate], the inhibition at 1 µM on 5-HT1A receptors (setting [1]) was 90%; at α2D-adrenoceptors, 84%. In addition, the “% displacement at 10^-6 M, α1” value in the assay with α1-adrenoceptors came to 98%. On D2 dopamine receptors, this compound returned a Ki of 93 nM.
Regarding `C=CCn1c(-c2ccccc2)nn(CCCCN2CCN(c3ccccc3OC)CC2)c1=O.Cl.Cl` [Example 66, 4-Allyl-2-{4-[4-(2-methoxyphenyl)piperazin-1-yl]butyl}-5-phenyl-1,2,4-triazol-3(2H,4H)-one dihydrochloride], the inhibition at 1 µM at 5-HT1A receptors came out at 92%. The Ki on α2D-adrenoceptors was more than 500 nM; on D2 dopamine receptors it was 169 nM. For the same compound, the “% displacement at 10^-6 M, α1” value in the assay on α1-adrenoceptors is given as 99%.
`C=CCn1c(-c2cccnc2)nn(CN2CCN(c3cccc(C)c3C)CC2)c1=S` [Example 61, 4-Allyl-2-[4-(2,3-dimethylphenyl)piperazin-1-ylmethyl]-5-(3-pyridyl)-1,2,4-triazole-3(2H,4H)-thione]: the inhibition at 1 µM on 5-HT1A receptors (setting [1]) and at α2D-adrenoceptors was 52% each time. The Ki at α1-adrenoceptors and at D2 dopamine receptors was more than 500 nM in each case.
Take `C=CCn1c(C)nn(CN2CCN(c3ccccc3OC)CC2)c1=S` [Example 59, 4-Allyl-2-[4-(2-methoxyphenyl)piperazin-1-ylmethyl]-5-methyl-1,2,4-triazole-3(2H,4H)-thione]: the inhibition constant Ki at 5-HT1A receptors (rat hippocampus) was found to be 119 nM; on α2D-adrenoceptors, 255 nM; at α1-adrenoceptors, 497 nM; on D2 dopamine receptors, 306 nM.
On to `C=CCn1c(-c2cccnc2)nn(CCCCN2CCN(c3ccccc3OC)CC2)c1=O` [Example 46, 4-allyl-2-{4-[4-(2-methoxyphenyl)piperazin-1-yl]butyl}-5-(3-pyridyl)-1,2,4-triazol-3(2H,4H)-one], for which the Ki was 64 nM at 5-HT1A receptors (rat hippocampus), more than 500 nM on α2D-adrenoceptors, 16 nM at α1-adrenoceptors and 48 nM at D2 dopamine receptors.
`C=CCn1c(-c2cccnc2)nn(CCN2CCN(c3ccccc3C)CC2)c1=O` [Example 71, 4-Allyl-2-{2-[4-(2-methylphenyl)piperazin-1-yl]ethyl}-5-(3-pyridyl)-1,2,4-triazol-3(2H,4H)-one]: the Ki at 5-HT1A receptors (rat hippocampus), on α2D-adrenoceptors and on D2 dopamine receptors was more than 500 nM throughout. In the assay on α1-adrenoceptors, the “% displacement at 10^-6 M, α1” value stood at 56%.
Regarding `COc1ccccc1N1CCN(Cc2c(C3CC3)nn(-c3ccccc3)c2N)CC1` [Example 9, 5-amino-3-cyclopropyl-4-[4-(2-methoxyphenyl)piperazin-1-ylmethyl]-1-phenylpyrazole], the Ki at 5-HT1A receptors (rat hippocampus) turned out to be 49 nM; on α2D-adrenoceptors it was 81 nM; on α1-adrenoceptors, 9 nM; at D2 dopamine receptors it was 374 nM.
The matching figures for `C=CCn1c(-c2ccco2)nn(CN2CCN(c3ccccc3OC)CC2)c1=S` [Example 56, 4-Allyl-5-(2-furyl)-2-[4-(2-methoxyphenyl)piperazin-1-ylmethyl]-1,2,4-triazole-3(2H,4H)-thione]: 105 nM, 197 nM, 401 nM and 158 nM.
The matching figures for `C=CCn1c(-c2ccncc2)nn(CN2CCN(c3ccccc3OC)CC2)c1=S` [Example 49, 4-Allyl-2-[4-(2-methoxyphenyl)piperazin-1-ylmethyl]-5-(4-pyridyl)-1,2,4-triazole-3(2H,4H)-thione]: 123 nM, 146 nM, more than 500 nM and 121 nM.
The matching figures for `C=CCn1c(-c2cccnc2)nn(CN2CCN(c3ccccc3OC)CC2)c1=S` [Example 47, 4-Allyl-2-[4-(2-methoxyphenyl)piperazin-1-ylmethyl]-5-(3-pyridyl)-1,2,4-triazole-3(2H,4H)-thione]: 152 nM, 178 nM, more than 500 nM and 262 nM.
`C=CCn1c(-c2ccccc2)nn(CCN2CCN(c3ccccc3OC)CC2)c1=O.O=C(O)/C=C/C(=O)O` [Example 68, 4-Allyl-2-{2-[4-(2-methoxyphenyl)piperazin-1-yl]ethyl}-5-phenyl-1,2,4-triazol-3(2H,4H)-one monofumarate]: the inhibition at 1 µM on 5-HT1A receptors (setting [1]) is 56%. In addition, the Ki at α2D-adrenoceptors and at D2 dopamine receptors was more than 500 nM throughout. Also, the “% displacement at 10^-6 M, α1” value in the assay with α1-adrenoceptors was 67%.
In the case of `COc1ccccc1N1CCN(Cc2c(N)n(C)n(-c3ccccc3)c2=O)CC1` [Example 1, 3-amino-4-[4-(2-methoxyphenyl)piperazin-1-ylmethyl]-2-methyl-1-phenyl-3-pyrazolin-5-one], the inhibition constant (Ki) was 169 nM on 5-HT1A receptors (rat hippocampus), 130 nM at α2D-adrenoceptors, 23 nM on α1-adrenoceptors and 192 nM on D2 dopamine receptors.
With `CCCn1c(-c2ccncc2)nn(CN2CCN(c3ccccc3OC)CC2)c1=S` [Example 53, 2-[4-(2-Methoxyphenyl)piperazin-1-ylmethyl]-4-propyl-5-(4-pyridyl)-1,2,4-triazole-3(2H,4H)-thione], the Ki on 5-HT1A receptors (rat hippocampus) is 117 nM; on α2D-adrenoceptors, 150 nM; on α1-adrenoceptors it was more than 500 nM; on D2 dopamine receptors it was 274 nM.
Consider `COc1ccccc1N1CCN(Cn2nc(-c3ccncc3)n(C)c2=S)CC1` [Example 51, 2-[4-(2-Methoxyphenyl)piperazin-1-ylmethyl]-4-methyl-5-(4-pyridyl)-1,2,4-triazole-3(2H,4H)-thione], for which, on 5-HT1A receptors (setting [1]), the inhibition at 1 µM was found to be 54%. For the same compound, the Ki on α2D-adrenoceptors is more than 500 nM; at D2 dopamine receptors, 134 nM. Also, in the assay with α1-adrenoceptors, the “% displacement at 10^-6 M, α1” value is reported as 53%.
With `C=CCN1C(=O)C(C)(CN2CCN(c3ccccc3OC)CC2)N=C1c1cccnc1` (centres unmarked) [Example 39, 1-allyl-4-[4-(2-methoxyphenyl)piperazin-1-ylmethyl]-4-methyl-2-(3-pyridyl)-2-imidazolin-5-one], the inhibitory constant (Ki) was 101 nM on 5-HT1A receptors (rat hippocampus), 115 nM on α2D-adrenoceptors and more than 500 nM on α1-adrenoceptors. For the same compound, at D2 dopamine receptors (10^-6 M, tritiated (S)-sulpiride, read-out: % displacement at 10^-6 M, D2), the inhibition at 1 µM was determined as 72%.
